Molecular target: T1, human VR1 (Homo sapiens, UniProt Q8NER1)
T1 construct: expressed in transfected cells
Assay: FLIPR Calcium 3 calcium flux assay (headed Vanilloid Receptor Binding Assay), antagonist activity against capsaicin
Type: cell-based
Settings: Chinese hamster ovary cells expressing human VR1; for inhibition at 10 µM: 10 min, highest concentration of 10 μM, read-out: TRPV1 % Mean effect at 10 μM concentration; for EC50: antagonist activity vs 30 nM capsaicin, read-out: TRPV1 pEC50 (converted)
Description: Methods to construct such recombinant cell lines are well known in the art (Sambrook et al., Molecular Cloning: a Laboratory Manual, Cold Spring Harbor Laboratory Press, Cold Spring Harbor, 2000). The compounds of the invention are thus useful in the treatment of TRPV1 mediated disorders, such as in the treatment of acute and chronic pain disorders, acute and chronic neuropathic pain, acute and chronic inflammatory pain, respiratory diseases and in lower urinary tract disorders.
Test compounds were prepared as stock solution in dimethylsulfoxide and tested for activity over several log units (ranging 100 μM-100 pM). Compounds were further diluted in assay buffer as necessary for IC50 determination.
Chinese hamster ovary cells expressing human VR1 were grown in DMEM/F12 50/50 Mix (Mediatech, Inc., Herndon, Va., USA), supplemented with 10% FetalClone II (Hyclone, Logan, Utah, USA), 1% GlutaMax (Invitrogen Corp., Carlsbad, Calif., USA), 1% Pen/Strep (Mediatech) and 0.4 mg/ml G418 (Mediatech). The day before the assay, cells were seeded into 384-well tissue culture-treated black plates with clear bottoms (Corning, Inc., Corning, N.Y., USA), at 10,000 viable cells/well in 50 μl/well of medium containing no G418.
On the day of the assay, which is the FLIPR® Calcium 3 Assay commercially available from Molecular Devices Corp., Sunnyvale, Calif. USA, the plating medium was removed and replaced with 25 μl/well 1× Calcium 3 Assay kit dye, prepared in VR1 Buffer (160 mM NaCl, 4.5 mM KCl, 10 mM HEPES, 10 mM Glucose, 2 mM CaCl2, 1 mM MgCl2 and 0.5 mM Probenecid). After 1 hour incubation at room temperature, the plates were loaded into the FLIPR (Molecular Devices, Corp.), which adds 12.5 μl of test compound in VR1 Buffer containing 4% dimethylsulfoxide and reads the subsequent change in the fluorescence of the cells to monitor agonist activity. Ten minutes after compound addition, the plates were reloaded into the FLIPR, which adds 12.5 μl of 30 nM capsaicin in VR1 Buffer and reads the subsequent change in the fluorescence of the cells to monitor antagonist activity. In this way, the same assay was used to assess both the agonist activity and antagonist activity of test compounds.

T1 sequence (Q8NER1 whole entry): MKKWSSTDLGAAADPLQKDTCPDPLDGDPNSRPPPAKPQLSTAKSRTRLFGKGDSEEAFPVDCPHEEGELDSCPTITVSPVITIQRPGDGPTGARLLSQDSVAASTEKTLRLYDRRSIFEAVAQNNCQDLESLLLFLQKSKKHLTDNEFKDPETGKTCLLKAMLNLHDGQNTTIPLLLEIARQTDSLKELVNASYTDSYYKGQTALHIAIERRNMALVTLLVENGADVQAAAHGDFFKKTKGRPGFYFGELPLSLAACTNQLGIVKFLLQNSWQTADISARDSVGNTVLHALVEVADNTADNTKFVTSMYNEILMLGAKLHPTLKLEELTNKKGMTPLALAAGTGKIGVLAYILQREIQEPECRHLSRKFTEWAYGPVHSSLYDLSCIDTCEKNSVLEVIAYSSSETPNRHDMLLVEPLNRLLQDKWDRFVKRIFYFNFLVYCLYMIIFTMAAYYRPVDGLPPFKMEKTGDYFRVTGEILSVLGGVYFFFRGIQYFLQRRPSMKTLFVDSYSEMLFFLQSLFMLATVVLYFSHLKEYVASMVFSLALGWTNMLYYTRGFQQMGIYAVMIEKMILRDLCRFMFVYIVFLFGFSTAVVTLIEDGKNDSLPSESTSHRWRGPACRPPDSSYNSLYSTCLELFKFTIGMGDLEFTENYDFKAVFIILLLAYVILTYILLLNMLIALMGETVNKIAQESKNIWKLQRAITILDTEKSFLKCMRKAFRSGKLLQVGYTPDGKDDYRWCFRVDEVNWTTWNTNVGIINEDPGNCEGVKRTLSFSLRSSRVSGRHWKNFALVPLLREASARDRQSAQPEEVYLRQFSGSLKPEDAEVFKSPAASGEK

Structure (SMILES)	inhibition at 10 µM [%]	EC50 [nM]
O=C(NC1CCCC1)c1noc(-c2ccc(F)cc2)c1Cl	98	100
O=C(NC1CCCCC1)c1noc(-c2ccc(Cl)cc2)c1Cl	88	63.1
Cc1c(C(=O)NC2CCCC2)noc1-c1ccc(C(F)(F)F)cc1	101	39.8
Cc1c(C(=O)NC2CCOCC2)noc1-c1ccc(C(F)(F)F)c(F)c1	99	12.6
O=C(NC1CCCC1)c1noc(-c2ccc(Cl)cc2)c1Cl	102	15.8
O=C(NC1CCCC1)c1cc(-c2ccc(Cl)cc2)on1	17	
O=C(NC1CCCC1)c1noc(-c2ccc(C(F)(F)F)cc2)c1Cl	90	3.98

Other lines, results leading:

inhibition at 10 µM [%]	EC50 [nM]	Structure (SMILES)
50		CCCC(C)NC(=O)c1cc(-c2ccc(Cl)cc2)on1 (centres unmarked)
96	31.6	O=C(NC1CCCC1)c1noc(-c2ccc(C(F)(F)F)cc2)c1F
67	10	O=C(NC1CCCC1)c1noc(-c2ccc(C(F)(F)F)cc2)c1Br
103	31.6	O=C(Nc1cccc(CO)c1)c1noc(-c2ccc(C(F)(F)F)c(F)c2)c1Cl
97	501	O=C(NC1CCCC1)c1cc(-c2ccc(C(F)(F)F)cc2)on1
89	31.6	O=C(NC1CCOCC1)c1noc(-c2ccc(C(F)(F)F)cc2)c1Cl
99	63.1	CC[C@H](CO)NC(=O)c1noc(-c2ccc(C(F)(F)F)c(F)c2)c1C
89	158	CCCC(C)NC(=O)c1noc(-c2ccc(Cl)cc2)c1Cl (centres unmarked)
103	100	Cc1c(C(=O)N[C@@H](C)C(C)C)noc1-c1ccc(C(F)(F)F)c(F)c1
98	100	CCCc1c(C(=O)CC2CCCC2)noc1-c1ccc(C(F)(F)F)cc1
